Results on one compound are retold here after patent US20260345582A1, “PRODRUG FOR ANTI-AGING RELATED DISEASES AND USE METHOD THEREOF” (Beijing SunCell Bio-Medical Co., Ltd., priority 2022, published 2026).

The nature of data set [1]: plasma metabolic stability, mouse. The data set is classed as in vitro ADME. Particulars: 120 min. The procedure: (§1) Plasma Metabolic Stability
(§2) Termination of the reaction was accomplished by the addition of 3× volume of acetonitrile and centrifugation at 16000 g for 20 minutes. The supernatant was taken for a LC-MS/MS analysis. The chromatographic column: Waters XSelect HSS T3; the flow rate: 500 μL/min; the eluent: A, water (0.1% formic acid); B, acetonitrile (0.1% formic acid); the gradient elution: 0-1.5 min, 5% B, 1.5-9 min, 5%-80% B, 9-12 min, 80%-100% B, 12-14 min, 100% B, 14-14.3 min, 100%-5% B, 14.3-15 min, 5% B.

The nature of data set [2]: liver microsomal metabolic stability, all species. In kind it is in vitro ADME, rat and mouse. Particulars: human, monkey, canine, rat, mouse; Table 4. The procedure:
(§3) Hepatic Microsomal Metabolic Stability
The entire experiment was performed in triplicate. All data calculations were performed by Microsoft Excel software. Peak areas were detected by extracting the ionic spectrum.
The in vitro half-life (t1/2) was calculated by slope: in vitro t½=0.693/k
A general note: Microsomes from liver hold many membrane-bound enzymes, among them those of drug oxidation.

A short description of data set [3]: plasma metabolic stability, human. In kind it is in vitro ADME. Particulars: 120 min. The procedure: as §1, §2
A short description of data set [4]: liver microsomal metabolic stability, rat. The protocol:
as §3
(§4) A13bGa1 was co-incubated with the mouse, rat, canine, monkey and human […] and the incubation medium at a final drug concentration of 1 μM in the incubation system for 60 minutes. Samples were taken and analyzed at time points 0, 15, 30, 45 and 60 minutes during the incubation. The reaction was terminated by adding an amount of acetonitrile solution containing the internal standard. […] The residual percentage, half-life, intrinsic clearance, amplified clearance, hepatic clearance and hepatic extraction ratio were determined. The entire experiment was performed in triplicate. All data calculations were performed by Microsoft Excel software. Peak areas were detected by extracting the ionic spectrum. The in vitro half-life (t1/2) of the parent compound was detected by fitting the natural logarithm of the percentage elimination of the parent compound linearly to time.
(§5) The in vitro intrinsic clearance (in μL/min/mg protein) was calculated using the following equation: in vitro CLint=kV/N
(§6) The amplified clearance (in mL/min/kg) was calculated using the following equation: Amplified CLint=kV/N×the amplification factor
(§7) The hepatic clearance (in mL/min/kg) was calculated using the following equation: The predicted hepatic CLH=(Q×Fu/RB×the amplified CLint)/(Q+Fu/RB×the amplified CLint) • V=the incubation volume per well (0.2 mL); • N=the total amount of protein (mg) • Q=the hepatic blood flow (mL/min/kg) • Fu=the plasma free rate (assumed to be 1) • RB=the whole blood partition coefficient (assumed to be 1)
(§8) The hepatic uptake rate was calculated using the following equation:
(§9) The hepatic extraction ratio (ER)=(the predicted hepatic CLH)/Q

The subject of data set [5] is HELF cells (primary human embryonic lung fibroblast). Nature of the data set: in vitro killing of induced senescent HELF cells (CCK-8). Particulars: lung-derived, FIG. 3C. The data set is classed as cell-based. From the text:
(§10) Induction of the Cellular Senescence

Data set [6] has as its target E. coli-derived β-galactosidase (Escherichia coli, UniProt P00722). Nature of the data set: in vitro enzymatic hydrolysis of the prodrug by β-galactosidase (HPLC). In kind it is biochemical. Particulars: role: substrate, 10 μM, β-galactosidase 10 U/μM, PBS 0.01 M pH 7.3, 37 °C, 6 hours, FIG. 2C. The procedure:
Study of the Hydrolysis Reaction of A13bG
The in vitro enzymatic hydrolysis reaction was carried out using E. coli-derived β-galactosidase (Sigma) in PBS solution (0.01 M, pH 7.3) at a reaction concentration of 10 μM for both A13 and A13bG, and for 6 hours at 37 °C after the addition of β-galactosidase (10 U/μM). The hydrolysis reaction was monitored by the high performance liquid chromatography (HPLC). The compound A13 and the prodrug A13bG without enzyme reaction were analyzed by HPLC at the same conditions as the references. The chromatographic column model: Waters Acquity BEH C4, the conditions: 0.04 ml/min, (water (0.1% acetic acid)): the acetonitrile gradient elution: 98:2 1 min, 5:95 13 min, 5:95 18 min, 2:98 20 min.

Data set [7] deals with MRC5 cells (human embryonic lung fibroblast cell line). As to the kind of experiment: in vitro killing of induced senescent MRC5 cells (CCK-8). The data set is classed as cell-based. Particulars: lung-derived, FIG. 3G.
Excerpt: as §10

Data set [8] can be described thus: plasma metabolic stability, monkey. Particulars: 120 min. The data set is classed as in vitro ADME. The protocol:
as §1, §2

A short description of data set [9]: liver microsomal metabolic stability, canine. The protocol: as §3, §4, §5, §6, §7, §8, §9
Data set [10] deals with mouse model of Bleomycin-induced pulmonary fibrosis. As to the kind of experiment: Bleomycin-induced pulmonary fibrosis model, overall therapeutic effect. The data set is classed as in vivo, C57 mice. Particulars: 5 mg/kg i.p., four weeks. The procedure: A. Modelling of a mouse model of Bleomycin-induced pulmonary fibrosis, and the schematic diagram of treatment. Mice were modelled with Bleomycin administered via tracheal instillation on day 0, and the treatment with intraperitoneal injection of the drug was started on day 4. The drug was administered for 3 consecutive days per week, followed by a 4-day withdrawal, for 4 weeks.
All drugs were mixed in 85% physiological saline, 5% DMSO (Sigma, D8418) and 10% Solutol HS 15 (Sigma, 42966), and administered to mice by intraperitoneal (i.p.) injection. To treat the bleomycin-injured young mice, A13 (2 mg/kg), A13bGa1 (5 mg/kg), or an empty vehicle control was administered three consecutive days per week for four weeks. A1331852 (abbreviated as A13) was purchased from MCE.
Bleomycin-Induced Pulmonary Fibrosis
Bleomycin was purchased from Selleck. As previously reported (Bivas-Benita et al., Eur J Pharm Biopharm 61, 214-218 (2005)), a transtracheal injection of bleomycin (2 mg/kg) was performed to the young male C57 mice (8-10 weeks old) to induce lung fibrosis. Drug treatment was initiated four days after modelling, and the drug was administered three consecutive days per week for four consecutive weeks, after which the mice were executed for material collection.

Setting [11] is: 10 μM prodrug, read-out: The peak area after normalisation at minute 120, oxidative dehydrogenation metabolite.
Setting [12] is: 10 μM, read-out: The peak area after normalisation at minute 120, initial drug.

Each structure is given as a SMILES string.

Chain of E. coli-derived β-galactosidase (P00722 whole entry): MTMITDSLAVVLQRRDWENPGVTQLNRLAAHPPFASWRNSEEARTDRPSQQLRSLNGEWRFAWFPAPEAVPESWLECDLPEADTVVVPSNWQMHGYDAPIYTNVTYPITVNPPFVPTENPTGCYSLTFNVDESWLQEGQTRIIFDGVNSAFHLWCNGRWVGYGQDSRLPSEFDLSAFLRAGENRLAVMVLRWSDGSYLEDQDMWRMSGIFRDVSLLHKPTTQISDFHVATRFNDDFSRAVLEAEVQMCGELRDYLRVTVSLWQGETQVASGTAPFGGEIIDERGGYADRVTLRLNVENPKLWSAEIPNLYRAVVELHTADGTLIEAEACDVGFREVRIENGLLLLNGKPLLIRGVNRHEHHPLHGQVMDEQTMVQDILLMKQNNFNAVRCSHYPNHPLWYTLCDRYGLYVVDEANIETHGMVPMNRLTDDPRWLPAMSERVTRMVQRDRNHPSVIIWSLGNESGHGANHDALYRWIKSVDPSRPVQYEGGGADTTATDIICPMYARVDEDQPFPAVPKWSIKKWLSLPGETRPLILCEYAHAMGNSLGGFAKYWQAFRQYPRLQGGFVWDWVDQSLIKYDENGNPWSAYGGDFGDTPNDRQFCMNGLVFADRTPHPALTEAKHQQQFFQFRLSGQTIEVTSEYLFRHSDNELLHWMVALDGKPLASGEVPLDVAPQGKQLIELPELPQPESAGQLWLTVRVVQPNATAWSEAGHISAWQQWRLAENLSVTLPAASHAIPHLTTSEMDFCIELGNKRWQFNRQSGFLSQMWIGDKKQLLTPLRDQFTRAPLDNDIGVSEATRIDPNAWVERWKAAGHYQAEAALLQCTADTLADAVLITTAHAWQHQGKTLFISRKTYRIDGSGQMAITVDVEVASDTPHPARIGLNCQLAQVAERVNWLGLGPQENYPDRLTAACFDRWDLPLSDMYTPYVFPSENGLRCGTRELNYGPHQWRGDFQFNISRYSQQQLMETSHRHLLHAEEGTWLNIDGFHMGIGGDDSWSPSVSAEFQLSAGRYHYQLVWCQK

As to `Cc1c(-c2ccc(N3CCc4cccc(C(=O)Nc5nc6ccccc6s5)c4C3)nc2C(=O)OCc2ccc(O[C@@H]3O[C@H](CO)[C@H](O)[C@H](O)[C@H]3O)c([N+](=O)[O-])c2)cnn1CC12CC3CC(CC(C3)C1)C2` [Compound A13bGa1], the metabolised at 2 h, 10 µM turned out to be 0.04% in [1] (setting [11]), 0.07% in data set [3] (setting [11]) and 0.04% in data set [8] (setting [11]). Further, the remaining at 2 h, 10 µM amounted to 100% in data set [1] (setting [12]), 99.9% in [3] (setting [12]) and 100% in data set [8] (setting [12]). For the same compound, the “liver microsomal metabolic stability” value in [2] is “good moderate metabolic stability”. In addition, the “The hepatic extraction ratio (E)” value in [4] is listed as 0.34; in data set [9] (canine) it was 0.70. Moreover, the “The intrinsic clearance in vitro Clint” value in data set [4] (1 μM, 60 min) is reported as 15.81 μL/min/mg protein; in data set [9] (canine, 1 μM, 60 min), 29.31 μL/min/mg protein. For the same compound, the “The predicted intrinsic hepatic clearance Clint” value in data set [4] (Fu and RB assumed to be 1) is given as 18.72 mL/min/kg; in data set [9] (canine, Fu and RB assumed to be 1), 21.72 mL/min/kg. The intrinsic metabolic clearance (CLint scaled) (usually the capacity of the preparation to metabolise the compound, expressed as a volume cleared per time) at 1 µM in [4] (microsomes) turned out to be 28.3 mL/min/kg; in data set [9] (dog, microsomes) it was 73.1 mL/min/kg. Besides, the half-life (commonly the time needed for the level to fall by half in the phase considered) at 1 h, 1 µM in [4] (microsomes) stood at 1.46 h; in data set [9] (dog, microsomes), 0.788 h. Moreover, the “killing of the senescent cells, efficiency and selectivity” value is “highly efficient and selective in killing the senescent cells” in data set [5]; “highly efficient and selective in killing the senescent cells” in data set [7]. For the same compound, in data set [6], the “hydrolysis under the action of β-gal enzyme, release of the parent compound A13” value was “hydrolysed under the action of β-gal enzyme to release the parent compound A13”. The “anti-inflammatory and anti-fibrotic therapeutic effects” value in data set [10] is “good anti-inflammatory and anti-fibrotic therapeutic effects”.
